We go through 5 compounds from publication PMC8217266 (Clinical Pharmacology and Therapeutics, 2021).

Data set [1] addresses T1, human OAT1 (Homo sapiens, UniProt Q4U2R8).
T1 sequence (Q4U2R8 1-563): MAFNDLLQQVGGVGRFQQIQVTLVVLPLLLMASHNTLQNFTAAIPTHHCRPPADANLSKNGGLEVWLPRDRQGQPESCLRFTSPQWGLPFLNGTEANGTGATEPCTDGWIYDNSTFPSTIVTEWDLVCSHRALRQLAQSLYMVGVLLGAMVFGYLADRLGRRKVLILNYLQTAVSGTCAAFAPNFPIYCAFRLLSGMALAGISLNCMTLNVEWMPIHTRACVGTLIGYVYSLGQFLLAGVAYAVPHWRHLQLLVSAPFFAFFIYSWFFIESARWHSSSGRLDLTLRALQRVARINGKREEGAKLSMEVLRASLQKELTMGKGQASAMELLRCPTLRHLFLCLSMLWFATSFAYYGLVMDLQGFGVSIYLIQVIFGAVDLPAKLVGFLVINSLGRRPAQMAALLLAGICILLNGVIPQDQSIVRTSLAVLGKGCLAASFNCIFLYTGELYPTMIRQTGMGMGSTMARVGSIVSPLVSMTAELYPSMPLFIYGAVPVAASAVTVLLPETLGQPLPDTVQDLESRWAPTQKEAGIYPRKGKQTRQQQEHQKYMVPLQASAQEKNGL
Description: cell-based.

Data set [2] concerns the target T2, human OCT1 (Homo sapiens, UniProt O15245).
T2 sequence (O15245 1-554): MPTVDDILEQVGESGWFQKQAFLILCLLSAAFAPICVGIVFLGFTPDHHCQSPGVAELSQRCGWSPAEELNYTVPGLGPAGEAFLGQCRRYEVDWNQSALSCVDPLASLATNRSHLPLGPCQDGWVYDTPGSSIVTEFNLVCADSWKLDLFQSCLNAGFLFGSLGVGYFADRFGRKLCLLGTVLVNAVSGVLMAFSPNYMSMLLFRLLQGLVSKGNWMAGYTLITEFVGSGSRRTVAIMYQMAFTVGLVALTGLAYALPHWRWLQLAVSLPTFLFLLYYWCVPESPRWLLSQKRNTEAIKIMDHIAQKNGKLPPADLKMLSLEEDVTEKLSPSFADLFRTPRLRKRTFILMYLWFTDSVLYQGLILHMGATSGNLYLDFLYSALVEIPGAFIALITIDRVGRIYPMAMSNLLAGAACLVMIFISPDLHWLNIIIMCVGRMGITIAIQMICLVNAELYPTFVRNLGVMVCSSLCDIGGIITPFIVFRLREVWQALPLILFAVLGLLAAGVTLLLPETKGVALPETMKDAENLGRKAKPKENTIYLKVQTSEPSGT
The conditions noted are these: for Iu,in,max/IC50 OCT1: human.

For data set [3], the target named is T3, human OCT2 (Homo sapiens, UniProt O15244).
T3 sequence (O15244 1-555): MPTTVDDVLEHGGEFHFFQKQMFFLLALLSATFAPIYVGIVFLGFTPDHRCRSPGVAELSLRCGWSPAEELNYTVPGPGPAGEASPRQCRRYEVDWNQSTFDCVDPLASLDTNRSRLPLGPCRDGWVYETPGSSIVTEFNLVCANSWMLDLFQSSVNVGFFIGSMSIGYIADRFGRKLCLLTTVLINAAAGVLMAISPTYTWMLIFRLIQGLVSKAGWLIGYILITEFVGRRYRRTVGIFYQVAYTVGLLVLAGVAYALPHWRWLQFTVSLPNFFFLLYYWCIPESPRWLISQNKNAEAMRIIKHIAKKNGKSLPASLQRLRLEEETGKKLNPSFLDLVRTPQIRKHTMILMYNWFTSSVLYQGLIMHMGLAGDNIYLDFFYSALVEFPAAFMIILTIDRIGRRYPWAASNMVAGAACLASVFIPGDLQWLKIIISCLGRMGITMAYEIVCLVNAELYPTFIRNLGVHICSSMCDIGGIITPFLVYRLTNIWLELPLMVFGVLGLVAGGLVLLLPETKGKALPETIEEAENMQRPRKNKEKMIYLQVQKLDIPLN

Data set [4] concerns the target T4, human OATP1B3 (Homo sapiens, UniProt Q9NPD5).
T4 sequence (Q9NPD5 1-702): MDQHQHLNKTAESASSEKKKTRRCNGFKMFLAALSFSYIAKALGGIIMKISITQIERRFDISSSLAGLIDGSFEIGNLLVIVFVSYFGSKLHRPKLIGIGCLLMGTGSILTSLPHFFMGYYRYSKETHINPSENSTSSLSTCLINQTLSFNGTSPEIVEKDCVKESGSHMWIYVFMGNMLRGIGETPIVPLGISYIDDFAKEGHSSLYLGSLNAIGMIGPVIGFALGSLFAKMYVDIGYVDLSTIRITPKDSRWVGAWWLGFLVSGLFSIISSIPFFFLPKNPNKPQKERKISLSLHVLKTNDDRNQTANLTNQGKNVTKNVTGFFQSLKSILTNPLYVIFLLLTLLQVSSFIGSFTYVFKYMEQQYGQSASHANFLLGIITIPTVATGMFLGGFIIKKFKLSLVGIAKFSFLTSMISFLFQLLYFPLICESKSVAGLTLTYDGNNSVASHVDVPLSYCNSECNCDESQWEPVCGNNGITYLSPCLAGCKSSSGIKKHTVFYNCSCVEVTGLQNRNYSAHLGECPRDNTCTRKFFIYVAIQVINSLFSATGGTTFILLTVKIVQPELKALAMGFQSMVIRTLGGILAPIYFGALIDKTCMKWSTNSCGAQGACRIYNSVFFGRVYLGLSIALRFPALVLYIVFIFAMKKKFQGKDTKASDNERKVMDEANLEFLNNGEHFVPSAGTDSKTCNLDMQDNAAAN

The target in data set [5] is T5, human OAT3 (Homo sapiens, UniProt Q8TCC7).
T5 sequence (Q8TCC7 1-542): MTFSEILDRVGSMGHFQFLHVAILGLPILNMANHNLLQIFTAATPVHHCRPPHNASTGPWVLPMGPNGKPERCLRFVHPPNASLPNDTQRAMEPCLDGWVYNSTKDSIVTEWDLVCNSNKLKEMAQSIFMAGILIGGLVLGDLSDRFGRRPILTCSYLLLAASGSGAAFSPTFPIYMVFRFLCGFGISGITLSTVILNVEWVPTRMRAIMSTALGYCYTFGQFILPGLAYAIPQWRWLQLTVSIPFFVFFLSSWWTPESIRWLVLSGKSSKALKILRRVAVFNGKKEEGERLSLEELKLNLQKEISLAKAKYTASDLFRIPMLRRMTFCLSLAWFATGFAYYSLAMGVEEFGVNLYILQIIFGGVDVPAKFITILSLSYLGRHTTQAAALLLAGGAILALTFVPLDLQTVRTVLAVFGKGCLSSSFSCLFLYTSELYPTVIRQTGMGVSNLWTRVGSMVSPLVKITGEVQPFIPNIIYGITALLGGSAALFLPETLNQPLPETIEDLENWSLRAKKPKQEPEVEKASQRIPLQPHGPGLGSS
The conditions noted are these: for Cu,max/IC50 OAT3: human.

For data set [6], the target named is human MATE2 (Homo sapiens, UniProt Q86VL8).
human MATE2, sequence (Q86VL8 1-566 isoform Q86VL8-3): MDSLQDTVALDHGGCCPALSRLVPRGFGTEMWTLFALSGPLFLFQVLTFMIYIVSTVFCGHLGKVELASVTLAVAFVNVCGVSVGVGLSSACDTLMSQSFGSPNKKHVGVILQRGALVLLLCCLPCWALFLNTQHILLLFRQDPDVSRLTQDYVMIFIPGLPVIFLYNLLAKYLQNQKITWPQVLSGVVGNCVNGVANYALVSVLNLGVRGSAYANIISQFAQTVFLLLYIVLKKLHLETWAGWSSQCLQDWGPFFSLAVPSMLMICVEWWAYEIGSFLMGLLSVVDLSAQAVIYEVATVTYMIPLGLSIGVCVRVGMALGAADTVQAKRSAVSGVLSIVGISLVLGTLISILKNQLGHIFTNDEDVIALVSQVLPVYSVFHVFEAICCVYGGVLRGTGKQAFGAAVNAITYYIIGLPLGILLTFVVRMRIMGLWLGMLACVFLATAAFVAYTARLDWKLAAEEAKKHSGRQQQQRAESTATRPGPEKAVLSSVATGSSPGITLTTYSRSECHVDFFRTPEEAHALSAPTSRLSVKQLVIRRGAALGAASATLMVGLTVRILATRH

A word on the IC50: it is the concentration that inhibits the measured activity by half. In turn, `CC(C)CN(C[C@@H](O)[C@H](Cc1ccccc1)NC(=O)O[C@H]1CO[C@H]2OCC[C@H]21)S(=O)(=O)c1ccc(N)cc1` [Darunavir] came in with an IC50 in data set [1] of 95 µM.
On to `N#CC[C@H](C1CCCC1)n1cc(-c2ncnc3[nH]ccc23)cn1` [Ruxolitinib], for which the “Iu,in,max/IC50 OCT1” value in data set [2] turned out to be 0.02. In data set [3], the “Cu,max/IC50 OCT2” value is 0.003. Also, the “Iu,in,max/IC50 OATP1B3” value in data set [4] is 0.008. Also, in data set [5], the “OAT3 inhibited more potently relative to OAT1” value is at least 10 fold and the “Cu,max/IC50 OAT3” value is 0.005. This compound also showed an IC50 in data set [1] of over 100 µM.
In the case of `CCCc1nn(C)c2c(=O)[nH]c(-c3cc(S(=O)(=O)N4CCN(C)CC4)ccc3OCC)nc12` [Sildenafil], in data set [5], the “OAT3 inhibited more potently relative to OAT1” value is listed as at least 10 fold and the “Cu,max/IC50 OAT3” value came out at 0.002. In addition, the “Cu,max/IC50 MATE2-K” value in data set [6] is listed as 0.003. This compound returned an IC50 in data set [1] of over 100 µM.
`CCOC(=O)c1c(CSc2ccccc2)n(C)c2cc(Br)c(O)c(CN(C)C)c12` [Umifenovir (Arbidol), Umifenovir]: in data set [2], the “OCT1 inhibited more potently relative to OCT2” value was at least 10 fold and the “Iu,in,max/IC50 OCT1” value is listed as 3.93. Further, the “Cu,max/IC50 OCT2” value in data set [3] is on record as 0.006. Further, in data set [4], the “Iu,in,max/IC50 OATP1B3” value is recorded as 0.73. Further, the “Cu,max/IC50 OAT3” value in data set [5] was found to be 0.002. For the same compound, the “Cu,max/IC50 MATE2-K” value in data set [6] is 0.02. This compound had a half-maximal inhibitory concentration (IC50) in data set [1] of over 100 µM.
In turn, `CCC(CC)COC(=O)[C@H](C)N[P@](=O)(OC[C@H]1O[C@@](C#N)(c2ccc3c(N)ncnn23)[C@H](O)[C@@H]1O)Oc1ccccc1` [Remdesivir] returned an IC50 in data set [1] of over 100 µM.
